Columns and labels:
Neuraminidase [1] = target: T1, Neuraminidase (Influenza A virus, UniProt B4URF0); test: Inhibition of Influenza A virus (A/Indonesia/5/2005(H5N1)) […] recombinant neuraminidase using 2'-(4-methylumbelliferyl)-alpha-D-N-acetylneuraminic acid as substrate after 1 hr by fluorescence assay
Neuraminidase [2] = target: T1, Neuraminidase; test: Inhibition of Influenza A virus (A/Sydney/5/97(H3N2)) recombinant neuraminidase using 2'-(4- methylumbelliferyl)-alpha-D-N-acetylneuraminic acid as substrate after 1 hr by fluorescence assay; set-up: species or system Influenza A virus (A/Sydney/5/1997(H3N2))
Influenza A virus [3] = test: Antiviral activity against Influenza A virus (A/Indonesia/5/2005(H5N1)) […] infected in MDCK cells assessed as protective rate against virus-induced cytopathic effect at 5 uM after 2 days by neutral red uptake assay; format: functional
in vivo [4] = conditions: Sprague-Dawley, rat, plasma, iv, 10 mg/kg
in vivo [5] = conditions: Sprague-Dawley, rat, po, 10 mg/kg
in vivo [6] = conditions: Sprague-Dawley, rat, plasma, po, 10 mg/kg
in vivo [7] = conditions: Sprague-Dawley, rat, po, 10 mg/kg; remark: listed apart in the source
Influenza A virus [8] = test: Antiviral activity against Influenza A virus (A/Indonesia/5/2005(H5N1)) […] infected in MDCK cells assessed as protective rate against virus-induced cytopathic effect at 4 uM after 2 days by neutral red uptake assay; format: functional
[9] = Clearance in Sprague-Dawley rat at 2 mg/kg, iv; format: ADME, organism-based; set-up: dose 2 mg/kg, route intravenous; conditions: in vivo
in vivo [10] = conditions: Sprague-Dawley, rat, iv, 2 mg/kg
[11] = Volume of distribution in Sprague-Dawley rat at 2 mg/kg, iv; format: ADME, organism-based; set-up: dose 2 mg/kg, route intravenous; conditions: in vivo

T1 sequence (B4URF0 whole entry): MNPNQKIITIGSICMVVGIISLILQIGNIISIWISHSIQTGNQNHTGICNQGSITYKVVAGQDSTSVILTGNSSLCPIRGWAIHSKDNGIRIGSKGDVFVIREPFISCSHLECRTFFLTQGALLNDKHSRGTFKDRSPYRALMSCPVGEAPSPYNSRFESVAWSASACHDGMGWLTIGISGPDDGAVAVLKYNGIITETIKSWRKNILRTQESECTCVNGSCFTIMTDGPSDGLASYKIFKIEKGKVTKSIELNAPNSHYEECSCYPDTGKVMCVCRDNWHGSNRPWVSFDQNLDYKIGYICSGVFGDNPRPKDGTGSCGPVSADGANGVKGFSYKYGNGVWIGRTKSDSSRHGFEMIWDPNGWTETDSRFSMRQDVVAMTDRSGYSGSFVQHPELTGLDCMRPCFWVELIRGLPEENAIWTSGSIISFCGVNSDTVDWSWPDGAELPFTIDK

Compound	IC50 (Neuraminidase [2]) [µM]	IC50 (Neuraminidase [1]) [µM]	Activity (Influenza A virus [3]) [%]	Activity (Influenza A virus [8]) [%]	also measured
CC(=O)N[C@H]1[C@H]([C@H](O)[C@H](O)CO)OC(C(=O)O)=C(C/C=C/c2ccc(C)cc2)[C@@H]1O					Ki (Neuraminidase [1]): 7.3 µM
CC(=O)N[C@H]1[C@H]([C@H](O)[C@H](O)CO)OC(C(=O)O)=C[C@@H]1NC(=O)N[C@H](CC(N)=O)C(=O)O	22.3	77.3			
CC(=O)N[C@H]1[C@H]([C@H](O)[C@H](O)CO)OC(C(=O)O)=C[C@@H]1NC(=O)Nc1ccc(C)cc1	777	933	0		
CC(=O)N[C@H]1[C@H]([C@H](O)[C@H](O)CO)OC(C(=O)O)=C[C@@H]1NC(=O)Nc1ccc(Cl)cc1	> 1000	> 1000	0		
CC(=O)N[C@H]1[C@H]([C@H](O)[C@H](O)CO)OC(C(=O)O)=C[C@@H]1NC(=O)Nc1ccc(F)cc1	> 1000	> 1000	0		
COc1ccc(NC(=O)N[C@H]2C=C(C(=O)O)O[C@@H]([C@H](O)[C@H](O)CO)[C@@H]2NC(C)=O)cc1	848	910	6.9		
CC(=O)N[C@H]1[C@H]([C@H](O)[C@H](O)CO)OC(C(=O)O)=C[C@@H]1NC(=O)NCc1ccco1	6.6	38.4	58		AUC(0-t) (in vivo [4]): 14000 ng·h/mL; bioavailability (in vivo [5]): 2.73%; AUC(0-t) (in vivo [6]): 381 ng·h/mL; half-life (in vivo [7]): 340 min
CC(=O)N[C@H]1[C@H]([C@H](O)[C@H](O)CO)OC(C(=O)O)=C[C@@H]1NC(=O)NCc1ccccc1	705	> 1000			
CC(=O)N[C@H]1[C@H]([C@H](O)[C@H](O)CO)OC(C(=O)O)=C[C@@H]1NC(=S)Nc1ccccc1	> 1000	> 1000	13.6		
CC(=O)N[C@H]1[C@H]([C@H](O)[C@H](O)CO)OC(C(=O)O)=C[C@@H]1NC(=S)Nc1ccc(C(F)(F)F)cc1	894	> 1000	34.4		
CC(=O)N[C@H]1[C@H]([C@H](O)[C@H](O)CO)OC(C(=O)O)=C[C@@H]1NC(=S)Nc1cccc(C(F)(F)F)c1	> 1000	> 1000	0		
COc1cccc(NC(=S)N[C@H]2C=C(C(=O)O)O[C@@H]([C@H](O)[C@H](O)CO)[C@@H]2NC(C)=O)c1	> 1000	> 1000	0		
CC(=O)N[C@H]1[C@H]([C@H](O)[C@H](O)CO)OC(C(=O)O)=C[C@@H]1NC(=S)Nc1ccccc1F	57.1	396	14.8		
COc1ccccc1NC(=S)N[C@H]1C=C(C(=O)O)O[C@@H]([C@H](O)[C@H](O)CO)[C@@H]1NC(C)=O	89.6	578	11.7		
CC(=O)N[C@H]1[C@H]([C@H](O)[C@H](O)CO)OC(C(=O)O)=C[C@@H]1NC(=S)Nc1ccccc1Br	> 1000	> 1000	2.9		
CC(=O)N[C@H]1[C@H]([C@H](O)[C@H](O)CO)OC(C(=O)O)=C[C@@H]1NC(=S)Nc1cccc2ccccc12	674	901	0		
CCNC(=S)N[C@H]1C=C(C(=O)O)O[C@@H]([C@H](O)[C@H](O)CO)[C@@H]1NC(C)=O	612	298		27.8	
CC(=O)N[C@H]1[C@H]([C@H](O)[C@H](O)CO)OC(C(=O)O)=C[C@@H]1NC(=S)NCCCl	100	67.2		20.3	
CCCCNC(=S)N[C@H]1C=C(C(=O)O)O[C@@H]([C@H](O)[C@H](O)CO)[C@@H]1NC(C)=O	64.5	21.4		32.6	

Compound	IC50 (Neuraminidase [2]) [µM]	IC50 (Neuraminidase [1]) [µM]	Activity (Influenza A virus [3]) [%]	Activity (Influenza A virus [8]) [%]	also measured
CC(=O)N[C@H]1[C@H]([C@H](O)[C@H](O)CO)OC(C(=O)O)=C[C@@H]1NC(=S)NC1CC1	550	295		11.3	
CC(=O)N[C@H]1[C@H]([C@H](O)[C@H](O)CO)OC(C(=O)O)=C[C@@H]1NC(=O)NCC(=O)O	530	113		6.2	
CC(=O)N[C@H]1[C@H]([C@H](O)[C@H](O)CO)OC(C(=O)O)=C[C@@H]1NC(=O)N[C@@H](C)C(=O)O	663	690		0	
CC(=O)N[C@H]1[C@H]([C@H](O)[C@H](O)CO)OC(C(=O)O)=C[C@@H]1NC(=O)N[C@H](C(=O)O)C(C)C	54.4	917		0	
CSCC[C@H](NC(=O)N[C@H]1C=C(C(=O)O)O[C@@H]([C@H](O)[C@H](O)CO)[C@@H]1NC(C)=O)C(=O)O	413	406		0	
CC(=O)N[C@H]1[C@H]([C@H](O)[C@H](O)CO)OC(C(=O)O)=C[C@@H]1NC(=O)N[C@@H](Cc1ccccc1)C(=O)O	629	> 1000		0	
CC(=O)N[C@H]1[C@H]([C@H](O)[C@H](O)CO)OC(C(=O)O)=C[C@@H]1NC(=O)N1CCC[C@H]1C(=O)O	574	> 1000		0	
CC(=O)N[C@H]1[C@H]([C@H](O)[C@H](O)CO)OC(C(=O)O)=C[C@@H]1NC(=O)N[C@H](C(=O)O)[C@@H](C)O	488	392		0	
CC(=O)N[C@H]1[C@H]([C@H](O)[C@H](O)CO)OC(C(=O)O)=C[C@@H]1NC(=O)N[C@@H](CC(N)=O)C(=O)O	0.58	2.72		8.7	
CC(=O)N[C@H]1[C@H]([C@H](O)[C@H](O)CO)OC(C(=O)O)=C[C@@H]1NC(=O)N[C@@H](CCC(N)=O)C(=O)O	58.1	103			
CC(=O)N[C@H]1[C@H]([C@H](O)[C@H](O)CO)OC(C(=O)O)=C[C@@H]1NC(=O)NCC(=O)NCC(=O)O	68.5	70.4		37.1	
CC(=O)N[C@H]1[C@H]([C@H](O)[C@H](O)CO)OC(C(=O)O)=C[C@@H]1NC(=O)N[C@@H](C)C(=O)NCC(=O)O	101	126			
CC(=O)N[C@H]1[C@H]([C@H](O)[C@H](O)CO)OC(C(=O)O)=C[C@@H]1N1CCOCC1	567	517		26.8	
CC(=O)N[C@H]1[C@H]([C@H](O)[C@H](O)CO)OC(C(=O)O)=C[C@@H]1N1CCCC(C(=O)O)C1 (some centres undefined)	496	532			
CC(=O)N[C@H]1[C@H]([C@H](O)[C@H](O)CO)OC(C(=O)O)=C[C@@H]1N1CCC2(CC1)OCCO2	511	738		0	
CC(=O)N[C@H]1[C@H]([C@H](O)[C@H](O)CO)OC(C(=O)O)=C[C@@H]1N1CCN(c2ccccc2)CC1	836	761			
CC(=O)N[C@H]1[C@H]([C@H](O)[C@H](O)CO)OC(C(=O)O)=C[C@@H]1N1CCN(c2cccc(C(F)(F)F)c2)CC1	271	122			
CC(=O)N[C@H]1[C@H]([C@H](O)[C@H](O)CO)OC(C(=O)O)=C[C@@H]1NC(=N)N [ZANAMIVIR]			67.2		clearance [9]: 1.42 mL/min/kg; bioavailability (in vivo [5]): 2.7%; half-life (in vivo [10]): 24 min; half-life (in vivo [7]): 15 min; Vd [11]: 0.03 L/kg
